Experimental data: patent publication US20140094434A1, “AMINO ACID COMPOSITION” (AJINOMOTO CO., INC, priority 2011, published 2014)

Experiments:
isolated rat hepatocytes = conditions: Biochem. J., 1991, 273: 57-62; cited from earlier work
Male C57BL/6J mice = assay: Spontaneous motor activity after 90 minutes treadmill running exercise; type: in vivo, mouse; conditions: Example 5, FIG. 8; oral dextrin 2 g/kg; measured for 3 hours after 90 minutes running; vs water administration
Method: Male C57BL/6J mice were habituated to a running exercise using a treadmill, and subjected to a test. The mice were fasted overnight, and orally administered (1) dextrin 2 g/kg, or (2) dextrin 1 g/kg and L-alanine (Ala) 1 g/kg. From 15 minutes after the administration, a 90 minutes running exercise was loaded at a rate of 26 m/minute using the treadmill. After exercise loading, the mice were transferred into a cage, and the motor activity was measured using a spontaneous motor activity monitor (NS-AS01: Neuroscience Inc.) for 3 hours (dextrin and dextrin+Ala in FIG. 8). As a control, the mice administered the above-mentioned (1) or (2) were administered water instead of (1) or (2), and the spontaneous motor activity was measured in the same manner (dextrin (water administration) and dextrin+Ala (water administration) in FIG. 8). In addition, the spontaneous motor activity of mice in a resting state after fasting overnight and free of the exercise loading was measured for 3 hours in the same manner (in rest in FIG. 8).

[1] = humans; ingestion of proline; Metabolism, 2004, 53(2): 241-246; cited from earlier work

Compound | glycogen synthesis (isolated rat hepatocytes) | spontaneous motor activity after running exercise loading (Male C57BL/6J mice) | increase of blood glucose level after glucose ingestion [1]
NC(=O)C[C@H](N)C(=O)O [asparagine] | enhance | – | –
dextrin | – | increased | –
N[C@@H](Cc1c[nH]cn1)C(=O)O [histidine] | enhance | – | –
C[C@H](N)C(=O)O [alanine] | enhance | – | –
NC(=O)CC[C@H](N)C(=O)O [glutamine] | enhance | – | –
O=C(O)[C@@H]1CCCN1 [proline] | enhance | – | suppresses
